{"source": "paper PMC5048095", "about": "“Agroindustrial Wastes as Alternative for Lipase Production by Candida viswanathii under Solid-State Cultivation: Purification, Biochemical Properties, and Its Potential for Poultry Fat Hydrolysis” (Enzyme Research, 2016)", "system": "T1, purified C. viswanathii lipase", "T1 construct": "native extracellular lipase from solid-state culture, Octyl Sepharose purified", "test": "p-nitrophenol release at […] nm, Lineweaver-Burk plot", "assay_type": "biochemical, Candida viswanathii", "settings": "0.0 to 1.0 mM p-NPP; pH and temperature of the kinetic assay not given; free enzyme", "data": [{"compound": "CCCCCCCCCCCCCCCC(=O)Oc1ccc([N+](=O)[O-])cc1", "note": "[p-NPP, p-nitrophenyl palmitate]", "values": [{"measurement": "Km", "result": 120, "unit": "µM"}]}]}
